Data on three molecules can be found in US20240082373A1, “COMPOSITIONS FOR CHIMERIC ANTIGEN RECEPTOR T CELL THERAPY AND USES THEREOF” (priority 2017, published 2024).

Data set [1] concerns FITC-CAR-T. Briefly: FITC-CAR-T proliferation in lymph nodes after vaccination (CTV-labeled cells). It counts as in vivo, C57Bl/6 mice. The settings on record: adjuvant alone, 25 ug. Here is the method: To assess whether DSPE-PEG-FITC accumulating on lymph node antigen presenting cells would lead to CAR T cell priming and how long this stimulatory effect would last for, at day 1, mice were administered PBS, c-di-GMP (25 ug), DSPE-PEG-FITC (10 nmol), or DSPE-PEG-FITC (10 nmol)+c-di-GMP (25 ug) into wildtype C57Bl/6 mice. After various time points, as indicated in the timeline in FIG. 7A, 2×10^6 CTV-labeled CAR-T cells were transferred into each mouse via tail-vein injection. CAR-T cells were titrated to be a mixture of CAR+ and CAR-cells at 1:1 ratio. After another 48 hours, mice were sacrificed and LNs were removed for FACS analysis.

Data set [2] can be described thus: Trafficking to and retention in lymph nodes (IVIS imaging). It counts as in vivo, mice. The following applies: free FITC control. As to the method:
Based on the results of Example 2, it was next determined whether the amphiphilic ligand conjugate DSPE-PEG-FITC could coat antigen presenting cells in lymph nodes (LN) to prime FITC-CAR-T cells in vivo. To assess DSPE-PEG-FITC trafficking to the lymph node and retention and uptake by APCs, C57BIU6 mice received varying doses of DSPE-PEG-FITC. Specifically, inguinal LN, auxiliary LN and lilac LN were harvested 24 hours after administration of 2 nmol, 5 nmol, or 10 nmol doses of DSPE-PEG-FITC was into the tail-veil of the mice. Free FITC was used as control. Mice were sacrificed and LNs were removed at different time point for IVIS imaging (excitation 465 nm, emission 520 nm) to monitor LN retention of FITC signal.
While FITC signal was almost lost at the lowest dose (2 nmol) after 4 days, the signal was retained for more than 21 days at high dose (10 nmol) of DSPE-PEG-FITC (FIG. 3A). Free FITC signal was lost in 24 hours (FIG. 3A).

For data set [3] the following is noted: mouse, in vivo.
Excerpt: One concern was that repeated vaccination may elicit antibody against FITC when conjugated to DSPE-PEG, thus blocking its stimulation to CAR in lymph nodes.

On to `Nc1nc2c(ncn2[C@@H]2O[C@@H]3COP(=O)(O)O[C@H]4[C@@H](O)[C@H](n5cnc6c(=O)[nH]c(N)nc65)O[C@@H]4COP(=O)(O)O[C@H]3[C@H]2O)c(=O)[nH]1` [c-di-GMP, cyclic-di-GMP], for which the “proliferation of CAR-T cells in LN” value in data set [1] was “Minimal proliferation”.

On to fluorescein isothiocyanate [Free FITC], for which the “time in which FITC signal was lost in LN” value in data set [2] was at most 24 h.

B1: FITC-OVA: FITC conjugated to the carrier protein OVA (conjugate, UniProt P01012 2-386, looked up)
Ovalbumin: GSIGAASMEFCFDVFKELKVHHANENIFYCPIAIMSALAMVYLGAKDSTRTQINKVVRFDKLPGFGDSIEAQCGTSVNVHSSLRDILNQITKPNDVYSFSLASRLYAEERYPILPEYLQCVKELYRGGLEPINFQTAADQARELINSWVESQTNGIIRNVLQPSSVDSQTAMVLVNAIVFKGLWEKAFKDEDTQAMPFRVTEQESKPVQMMYQIGLFRVASMASEKMKILELPFASGTMSMLVLLPDEVSGLEQLESIINFEKLTEWTSSNVMEERKIKVYLPRMKMEEKYNLTSVLMAMGITDVFSSSANLSGISSAESLKISQAVHAAHAEINEAGREVVGSAEAGVDAASVSEEFRADHPFLFCIKHIATNAVLFFGRCVSP
modifications: FITC
Regarding B1, in data set [3], the “antibody response against FITC” value is on record as “no antibody response was observed”.
